The target of this experiment is GCN2 kinase (Homo sapiens, UniProt Q9P2K8). Description: GCN2 enzyme inhibition assay (Transcreener ADP2 fluorescence polarization). The format is biochemical. The following applies: compounds of Formula II; 280 μM ATP, 4 nM GCN2 kinase. The method in brief: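 Inhibition of 4 nM GCN2 was measured with compound up to 8 μM final, ATP 280 μM and (RS)7 peptide 200 μM over a 1 h, 25 °C reaction. ADP FP readout; IC50 and Ki(app) calculated from percent inhibition.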

A value given as a limit tells only on which side of the number the result lay.

GCN2 kinase, sequence (Q9P2K8 whole entry): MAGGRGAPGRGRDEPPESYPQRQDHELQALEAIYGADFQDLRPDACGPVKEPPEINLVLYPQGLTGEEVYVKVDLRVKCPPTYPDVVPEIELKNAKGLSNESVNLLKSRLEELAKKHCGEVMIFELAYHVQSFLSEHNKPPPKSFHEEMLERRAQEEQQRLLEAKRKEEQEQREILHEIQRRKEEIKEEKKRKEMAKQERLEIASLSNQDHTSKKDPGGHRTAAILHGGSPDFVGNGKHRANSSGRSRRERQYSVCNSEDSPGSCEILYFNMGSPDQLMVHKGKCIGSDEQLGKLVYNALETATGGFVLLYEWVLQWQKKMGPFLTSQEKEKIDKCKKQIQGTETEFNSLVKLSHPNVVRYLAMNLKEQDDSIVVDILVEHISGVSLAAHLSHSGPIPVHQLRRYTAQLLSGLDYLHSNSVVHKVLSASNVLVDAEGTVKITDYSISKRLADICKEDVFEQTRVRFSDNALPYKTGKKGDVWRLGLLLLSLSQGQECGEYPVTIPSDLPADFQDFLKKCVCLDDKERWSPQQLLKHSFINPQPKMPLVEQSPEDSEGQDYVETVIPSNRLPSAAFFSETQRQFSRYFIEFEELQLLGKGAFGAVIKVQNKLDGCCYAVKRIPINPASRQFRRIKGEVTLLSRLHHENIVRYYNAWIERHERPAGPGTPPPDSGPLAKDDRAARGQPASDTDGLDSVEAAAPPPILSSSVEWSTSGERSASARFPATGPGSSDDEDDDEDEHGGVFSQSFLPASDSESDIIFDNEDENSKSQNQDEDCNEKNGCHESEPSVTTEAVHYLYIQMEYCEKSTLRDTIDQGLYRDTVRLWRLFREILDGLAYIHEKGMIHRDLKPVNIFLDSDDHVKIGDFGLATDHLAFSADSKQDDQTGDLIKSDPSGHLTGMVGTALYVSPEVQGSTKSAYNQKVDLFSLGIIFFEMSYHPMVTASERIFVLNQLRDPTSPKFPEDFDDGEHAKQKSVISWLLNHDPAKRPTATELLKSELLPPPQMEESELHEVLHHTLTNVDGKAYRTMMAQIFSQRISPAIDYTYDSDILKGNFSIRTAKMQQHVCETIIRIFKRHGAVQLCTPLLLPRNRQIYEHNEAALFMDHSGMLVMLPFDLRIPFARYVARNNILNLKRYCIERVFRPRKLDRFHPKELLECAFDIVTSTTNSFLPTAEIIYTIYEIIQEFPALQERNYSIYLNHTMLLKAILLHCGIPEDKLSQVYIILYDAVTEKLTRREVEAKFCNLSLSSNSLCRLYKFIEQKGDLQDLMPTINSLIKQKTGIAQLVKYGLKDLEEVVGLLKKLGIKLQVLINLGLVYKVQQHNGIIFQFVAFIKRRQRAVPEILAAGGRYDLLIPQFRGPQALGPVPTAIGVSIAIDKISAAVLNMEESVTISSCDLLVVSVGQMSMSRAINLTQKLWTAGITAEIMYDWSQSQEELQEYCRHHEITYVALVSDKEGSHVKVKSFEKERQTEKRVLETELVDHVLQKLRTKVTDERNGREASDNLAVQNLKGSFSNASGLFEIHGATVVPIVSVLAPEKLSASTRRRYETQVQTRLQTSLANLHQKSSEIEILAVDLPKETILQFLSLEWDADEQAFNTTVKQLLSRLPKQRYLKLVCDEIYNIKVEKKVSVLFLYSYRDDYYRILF

A word on the Ki: it is a measure of affinity in units of concentration, obtained from inhibition or displacement. In turn, `CC1CC(CNS(C)(=O)=O)CN(c2cc(-c3cnc4ccc(C(F)F)nn34)ncn2)C1C` (stereo not drawn) [II-592, N-((1-(6-(6-(Difluoromethyl)imidazo[1,2-b]pyridazin-3-yl)pyrimidin-4-yl)-5,6-dimethylpiperidin-3-yl)methyl)methanesulfonamide] returned a Ki of under 10 nM.
As for `CS(C)(=O)=NCc1cccc(-c2cc(-c3cnc4ccc(C(F)F)nn34)ncn2)c1` [II-595, ((3-(6-(6-(Difluoromethyl)imidazo[1,2-b]pyridazin-3-yl)pyrimidin-4-yl)benzyl)imino)dimethyl-λ^6-sulfanone], the Ki is 10 to 1000 nM.
On to `CS(=O)(=O)NC1CN(c2cc(-c3cnc4ccc(C(F)F)nn34)ncn2)CCC1(F)F` (stereo not drawn) [II-596, N-(1-(6-(6-(Difluoromethyl)imidazo[1,2-b]pyridazin-3-yl)pyrimidin-4-yl)-4,4-difluoropiperidin-3-yl)methanesulfonamide], for which the Ki was 10 to 1000 nM.
Consider `CS(=O)(=O)NC1CN(c2cc(-c3cnc4ccc(C(F)F)nn34)ncn2)CCC1(F)F` (stereo not drawn) [II-597, N-(1-(6-(6-(Difluoromethyl)imidazo[1,2-b]pyridazin-3-yl)pyrimidin-4-yl)-4,4-difluoropiperidin-3-yl)methanesulfonamide], for which the Ki lay within 10 to 1000 nM.
As for `CS(=N)(=O)Cc1cccc(-c2cc(-c3cnc4ccc(C(F)F)nn34)ncn2)c1` (stereo not drawn) [II-598, (3-(6-(6-(Difluoromethyl)imidazo[1,2-b]pyridazin-3-yl)pyrimidin-4-yl)benzyl)(imino)(methyl)-λ^6-sulfanone], the Ki was in the range of 10 to 1000 nM.
In the case of `CS(C)(=O)=Nc1cccc(-c2cc(-c3cnc4ccc(C(F)F)nn34)ncn2)c1` [II-599, [3-[6-[6-(Difluoromethyl)imidazo[1,2-b]pyridazin-3-yl]pyrimidin-4-yl]phenyl]imino-dimethyl-oxo-λ^6-sulfane], the Ki lay in the range of 10 to 1000 nM.
`CC1C(NS(C)(=O)=O)CCCN1c1cc(-c2cnc3ccc(C(F)F)nn23)ncn1` (stereo not drawn) [II-600, N-(1-(6-(6-(Difluoromethyl)imidazo[1,2-b]pyridazin-3-yl)pyrimidin-4-yl)-2-methylpiperidin-3-yl)methanesulfonamide] gave a Ki of over 1000 nM.
The compound `CC1C(NS(C)(=O)=O)CCCN1c1cc(-c2cnc3ccc(C(F)F)nn23)ncn1` (stereo not drawn) [II-601, N-(1-(6-(6-(Difluoromethyl)imidazo[1,2-b]pyridazin-3-yl)pyrimidin-4-yl)-2-methylpiperidin-3-yl)methanesulfonamide] had a Ki of under 10 nM.
Consider `CC1C(NS(C)(=O)=O)CCCN1c1cc(-c2cnc3ccc(C(F)F)nn23)ncn1` (stereo not drawn) [II-603, N-(1-(6-(6-(Difluoromethyl)imidazo[1,2-b]pyridazin-3-yl)pyrimidin-4-yl)-2-methylpiperidin-3-yl)methanesulfonamide], for which the Ki lay within 10 to 1000 nM.
For `C[C@H]1C[C@@H](CS(C)(=N)=O)[C@@H](C)N(c2cc(-c3cnc4ccc(C(F)F)nn34)ncn2)C1` (stereo partly drawn) [II-604, (((2R,3R,5S)-1-(6-(6-(Difluoromethyl)imidazo[1,2-b]pyridazin-3-yl)pyrimidin-4-yl)-2,5-dimethylpiperidin-3-yl)methyl)(imino)(methyl)-λ^6-sulfanone], the Ki was in the range of 10 to 1000 nM.
Turning to `C[C@H]1C[C@@H](CS(C)(=N)=O)[C@@H](C)N(c2cc(-c3cnc4ccc(C(F)F)nn34)ncn2)C1` (stereo partly drawn) [II-605, (((2R,3R,5S)-1-(6-(6-(Difluoromethyl)imidazo[1,2-b]pyridazin-3-yl)pyrimidin-4-yl)-2,5-dimethylpiperidin-3-yl)methyl)(imino)(methyl)-λ^6-sulfanone], the Ki fell in the range of 10 to 1000 nM.
The compound `C[C@@H]1C[C@H](CS(C)(=N)=O)[C@H](C)N(c2cc(-c3cnc4ccc(C(F)F)nn34)ncn2)C1` (stereo partly drawn) [II-606, (((2S,3S,5R)-1-(6-(6-(Difluoromethyl)imidazo[1,2-b]pyridazin-3-yl)pyrimidin-4-yl)-2,5-dimethylpiperidin-3-yl)methyl)(imino)(methyl)-λ^6-sulfanone] showed a Ki of under 10 nM.

These data come from patent US10988477B2 (Merck Patent GmbH, priority 2018, dated 2021).
